Data reported in patent US9567300B2, “Hexahydropentaleno derivatives, preparation method and use in medicine thereof” (SUNSHINE LAKE PHARMA CO., LTD., priority 2012, dated 2017).

Legend:
Format in all cases: biochemical
DPP-8 = molecular target: T1, DPP-8 (Homo sapiens, UniProt Q6V1X1); test: Active inhibition DPP-8 assay (Gly-Pro-AMC substrate, fluorescence); details: Gly-Pro-AMC 10 μM, 50 mM Tris pH 7.5
T1 construct: purchased Biomol SE-827
Procedure: (§1) The following methods were used for testing the inhibitive action of the compound disclosed herein against DPP-IV, DPP-8 and DPP-9 enzymatic activity. The inhibitive ability of the compound disclosed herein against enzymatic activity of DPP-IV, DPP-8 and DPP-9 was tested. The measurements of the inhibition ratio or the 50% inhibiting concentration IC50 of every compound were based on a fixed quantity of enzyme-substrate mixtures and different concentrations of the test compounds.
DPP-8 enzyme was purchased from Biomol, Catalog No. SE-827.
(§2) The test compound was dissolved in an appropriate amount of DMSO to prepare 100 mM mother liquor, which was divided into EP tubes and preserved at −20° C. The mother liquor was diluted with an assay buffer to prepare solutions with required concentrations. Sample solutions with different concentrations (4 μL) and certain concentration of DPP-IV (DPP-8 or DPP-9) solution (4 μL) were added into 384-well plates in turn. Referred to the instruction manual, Gly-Pro-AMC was selected as a substrate and the concentration thereof was 10 μM. The 16 mM mother liquor was prepared from the substrate and preserved at −20° C. for use. The 16 mM mother liquor was diluted with an assay buffer to a solution of known concentration. The assay buffer of DPP-IV was 25 mM Tris, and its pH was 8.0. The assay buffers of DPP-8 and DPP-9 were 50 mM Tris, and their pH was 7.5. The substrate mother liquor was diluted with an assay buffer, and the mixture (4 μL) was added into 384-well plates to prepare final solution concentration. The whole process was carried out in an ice bath. After the addition of the components of the assay system was completed, the system was centrifuged. The supernatant was then transferred to an Infinite F200 multifunctional microplate reader, and 20 fluorescence values were recorded every 30 sec. And then Slope (V0) was calculated directly by the software of microplate reader, fetching the data in the linear range. The measured reaction rate and the corresponding inhibition concentration were analyzed. Percent inhibition is I(%)=(V0−Vi)/V0×100%. Vi represents the initial reaction rate at different inhibition concentrations. V0 represents the initial reaction rate without inhibitor. Vi/V0 represents the inhibition level of inhibitor. Relevant curve chart was made with inhibition concentration as a horizontal coordinate and the value of Vi/V0 as a vertical coordinate. The IC50 values were calculated by Graph Pad Prism statistical analysis software.

DPP-IV = molecular target: T2, DPP-IV (Homo sapiens, UniProt P27487); test: Active inhibition DPP-IV assay (Gly-Pro-AMC substrate, fluorescence); details: Gly-Pro-AMC 10 μM, 25 mM Tris pH 8.0
T2 construct: purchased R&D 1180-SE
Procedure: as §1
DPP-IV enzyme was purchased from R&D, Catalog No. 1180-SE.
as §2

DPP-9 = molecular target: T3, DPP-9 (Homo sapiens, UniProt Q86TI2); test: Active inhibition DPP-9 assay (Gly-Pro-AMC substrate, fluorescence); details: Gly-Pro-AMC 10 μM, 50 mM Tris pH 7.5
T3 construct: purchased Bioscience 80090
Procedure: as §1
DPP-9 enzyme was purchased from Bioscience, Catalog No. 80090.
as §2

T1 sequence (Q6V1X1 whole entry): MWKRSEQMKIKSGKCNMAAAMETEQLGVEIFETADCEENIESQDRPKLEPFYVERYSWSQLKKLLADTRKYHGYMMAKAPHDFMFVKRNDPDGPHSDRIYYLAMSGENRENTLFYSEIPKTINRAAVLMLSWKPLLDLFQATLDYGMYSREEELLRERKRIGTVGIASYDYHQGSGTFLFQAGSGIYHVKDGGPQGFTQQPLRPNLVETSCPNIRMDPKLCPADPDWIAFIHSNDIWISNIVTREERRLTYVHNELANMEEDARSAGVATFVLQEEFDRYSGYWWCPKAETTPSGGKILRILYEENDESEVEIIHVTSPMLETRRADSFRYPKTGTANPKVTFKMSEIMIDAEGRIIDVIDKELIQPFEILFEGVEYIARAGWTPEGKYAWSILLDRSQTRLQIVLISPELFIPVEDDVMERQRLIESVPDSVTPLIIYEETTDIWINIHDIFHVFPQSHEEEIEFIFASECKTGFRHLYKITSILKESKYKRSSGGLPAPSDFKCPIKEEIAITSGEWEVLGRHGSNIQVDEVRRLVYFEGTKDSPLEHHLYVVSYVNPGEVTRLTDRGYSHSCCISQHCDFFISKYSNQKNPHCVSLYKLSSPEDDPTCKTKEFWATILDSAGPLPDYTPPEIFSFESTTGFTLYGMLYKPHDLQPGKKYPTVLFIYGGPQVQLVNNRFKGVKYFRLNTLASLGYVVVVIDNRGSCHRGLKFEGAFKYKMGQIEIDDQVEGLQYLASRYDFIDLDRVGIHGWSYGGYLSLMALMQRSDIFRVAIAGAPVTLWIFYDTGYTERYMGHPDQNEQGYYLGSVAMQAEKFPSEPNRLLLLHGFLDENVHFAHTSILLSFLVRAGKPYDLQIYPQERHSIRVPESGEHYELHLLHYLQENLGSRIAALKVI
T3 sequence (Q86TI2 whole entry): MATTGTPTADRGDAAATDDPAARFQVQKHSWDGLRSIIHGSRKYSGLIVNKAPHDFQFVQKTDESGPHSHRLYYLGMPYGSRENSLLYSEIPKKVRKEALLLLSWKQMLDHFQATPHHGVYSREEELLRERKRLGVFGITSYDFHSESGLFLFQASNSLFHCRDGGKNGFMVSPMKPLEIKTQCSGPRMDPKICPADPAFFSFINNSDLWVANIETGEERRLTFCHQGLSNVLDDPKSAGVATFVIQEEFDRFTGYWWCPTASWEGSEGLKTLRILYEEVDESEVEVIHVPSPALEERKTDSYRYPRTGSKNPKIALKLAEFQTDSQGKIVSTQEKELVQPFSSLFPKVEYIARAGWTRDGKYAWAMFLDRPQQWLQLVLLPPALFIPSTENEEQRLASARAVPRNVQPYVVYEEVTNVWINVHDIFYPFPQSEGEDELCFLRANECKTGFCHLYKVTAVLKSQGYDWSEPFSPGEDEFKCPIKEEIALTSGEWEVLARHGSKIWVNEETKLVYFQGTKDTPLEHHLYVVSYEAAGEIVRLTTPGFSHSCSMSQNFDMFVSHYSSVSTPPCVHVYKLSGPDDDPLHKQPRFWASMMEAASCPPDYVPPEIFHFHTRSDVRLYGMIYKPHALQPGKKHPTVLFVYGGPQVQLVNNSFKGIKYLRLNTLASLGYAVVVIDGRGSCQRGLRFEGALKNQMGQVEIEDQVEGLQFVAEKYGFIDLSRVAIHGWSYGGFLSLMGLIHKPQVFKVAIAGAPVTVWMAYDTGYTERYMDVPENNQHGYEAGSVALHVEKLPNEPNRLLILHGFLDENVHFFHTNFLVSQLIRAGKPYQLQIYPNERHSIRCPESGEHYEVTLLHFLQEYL
T2 sequence (P27487 whole entry): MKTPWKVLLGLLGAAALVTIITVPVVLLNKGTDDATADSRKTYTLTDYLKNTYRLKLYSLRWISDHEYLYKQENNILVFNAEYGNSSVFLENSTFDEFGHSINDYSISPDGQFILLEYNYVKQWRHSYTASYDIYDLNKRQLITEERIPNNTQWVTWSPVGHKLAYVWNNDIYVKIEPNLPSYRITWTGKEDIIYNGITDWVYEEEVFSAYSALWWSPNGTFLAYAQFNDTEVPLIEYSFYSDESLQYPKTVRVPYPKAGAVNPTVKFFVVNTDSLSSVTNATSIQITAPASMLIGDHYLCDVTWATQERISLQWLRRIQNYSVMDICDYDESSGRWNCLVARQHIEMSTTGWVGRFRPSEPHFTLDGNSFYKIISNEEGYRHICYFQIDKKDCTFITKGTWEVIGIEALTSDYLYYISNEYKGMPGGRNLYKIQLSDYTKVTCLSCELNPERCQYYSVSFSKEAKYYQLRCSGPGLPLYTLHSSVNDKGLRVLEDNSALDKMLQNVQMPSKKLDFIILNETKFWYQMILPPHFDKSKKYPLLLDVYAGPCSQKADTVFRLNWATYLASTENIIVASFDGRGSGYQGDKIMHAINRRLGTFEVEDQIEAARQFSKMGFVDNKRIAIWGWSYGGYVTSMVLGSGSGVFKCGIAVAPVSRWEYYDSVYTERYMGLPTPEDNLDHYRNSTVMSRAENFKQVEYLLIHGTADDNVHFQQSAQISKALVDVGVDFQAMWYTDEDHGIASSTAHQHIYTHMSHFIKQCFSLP

Row | IC50 (DPP-8) [µM] | IC50 (DPP-IV) [µM] | IC50 (DPP-9) [µM] | SMILES
1 | 50.5 | 0.0113 | 4.6 | CO[C@@H]1C[C@@H]2C[C@@](C)(NCC(=O)N3CCC[C@H]3C#N)C[C@@H]2C1 [Example 1, (S)-1-(2-(((2r,3aR,5S,6aS)-5-methoxy-2-methyloctahydropentalen-2-yl)amino)acetyl)pyrrolidine-2-carbonitrile]
2 | 1.58 | 0.00403 | 0.054 | CO[C@@H]1C[C@@H]2C[C@@](C)(NCC(=O)N3C[C@@H](F)C[C@H]3C#N)C[C@@H]2C1 [Example 2, (2S,4S)-4-fluoro-1-(2-(((2r,3aR,5S,6aS)-5-methoxy-2-methyloctahydropentalen-2-yl)amino)acetyl)pyrrolidine-2-carbonitrile]
3 | 0.9 | 0.0025 | 0.0124 | CO[C@H]1C[C@@H]2C[C@@](C)(NCC(=O)N3C[C@@H](F)C[C@H]3C#N)C[C@@H]2C1 [Example 4, (2S,4S)-4-fluoro-1-(2-(((2r,3aR,5R,6aS)-5-methoxy-2-methyloctahydropentalen-2-yl)amino)acetyl)pyrrolidine-2-carbonitrile]
4 |  | 0.0274 | 4.33 | C[C@@]1(NCC(=O)N2CCC[C@H]2C#N)C[C@H]2C[C@@H](O)C[C@H]2C1 [Example 5, (S)-1-(2-(((2r,3aR,5S,6aS)-5-hydroxy-2-methyloctahydropentalen-2-yl)amino)acetyl)pyrrolidine-2-carbonitrile]
5 | 18.2 | 0.00452 | 0.193 | CCO[C@@H]1C[C@@H]2C[C@@](C)(NCC(=O)N3CCC[C@H]3C#N)C[C@@H]2C1 [Example 6, (S)-1-(2-(((2r,3aR,5S,6aS)-5-ethoxy-2-methyloctahydropentalen-2-yl)amino)acetyl)pyrrolidine-2-carbonitrile]
6 | 2.67 | 0.00429 | 0.027 | CCO[C@@H]1C[C@@H]2C[C@@](C)(NCC(=O)N3C[C@@H](F)C[C@H]3C#N)C[C@@H]2C1 [Example 7, (2S,4S)-1-(2-(((2r,3aR,5S,6aS)-5-ethoxy-2-methyloctahydropentalen-2-yl)amino)acetyl)-4-fluoropyrrolidine-2-carbonitrile]
7 | 3.8 | 0.00691 | 0.031 | C[C@@]1(NCC(=O)N2C[C@@H](F)C[C@H]2C#N)C[C@H]2C[C@@H](OCC3CC3)C[C@H]2C1 [Example 8, (2S,4S)-1-(2-(((2r,3aR,5S,6aS)-5-(cyclopropylmethoxy)-2-methyloctahydropentalen-2-yl)amino)acetyl)-4-fluoropyrrolidine-2-carbonitrile]
8 |  | 0.171 |  | C[C@@]1(NCC(=O)N2C3C[C@H]3C[C@H]2C#N)C[C@H]2C[C@@H](O)C[C@H]2C1 (stereo partly drawn) [Example 12, (1S,3S,5S)-2-(2-(((2r,3aR,5S,6aS)-5-hydroxy-2-methyloctahydropentalen-2-yl)amino)acetyl)-2-azabicyclo[3.1.0]hexane-3-carbonitrile]
9 |  | 0.00925 |  | C[C@@]1(NCC(=O)N2C[C@@H](F)C[C@H]2C#N)C[C@H]2C[C@@H](OC3CC3)C[C@H]2C1 [Example 13, (2S,4S)-1-(2-(((2r,3aR,5S,6aS)-5-cyclopropoxy-2-methyloctahydropentalen-2-yl)amino)acetyl)-4-fluoropyrrolidine-2-carbonitrile]
10 |  | 0.00923 |  | C[C@@]1(NCC(=O)N2CCC[C@H]2C#N)C[C@H]2C[C@@H](OC3CC3)C[C@H]2C1 [Example 14, (S)-1-(2-(((2r,3aR,5S,6aS)-5-cyclopropoxy-2-methyloctahydropentalen-2-yl)amino)acetyl)pyrrolidine-2-carbonitrile]
11 |  | 0.0258 |  | C[C@@]1(NCC(=O)N2C[C@@H](F)C[C@H]2C#N)C[C@H]2CC3(CCO3)C[C@H]2C1 (stereo partly drawn) [Example 19, (2S,4S)-4-fluoro-1-(2-(((3a′R,5′r,6a′S)-5′-methylhexahydro-1′H-spiro[oxetane-2,2′-pentalen]-5′-yl)amino)acetyl)pyrrolidine-2-carbonitrile]
